Results published in patent US20150297738A1, “CONJUGATES COMPRISING HYDROXYALKYL STARCH AND A CYTOTOXIC AGENT AND PROCESS FOR THEIR PREPARATION” (Fresenius Kabi Deutschland GmbH, priority 2010, published 2015).
Marks after values point to notes of the source that are not given here.

How the values were obtained:
Format in all cases: in vivo, NMRI:nu/nu mice
[1] = system: human pancreas carcinoma ASPC-1; experiment: Tumor growth inhibition (RTV, T/C) in the ASPC-1 s.c. xenotransplantation model; details: Table 27, ASPC-1; day 27; 60 mg/kg/inj., treatment d 7, 15, 21
Text: At treatment initiation the ears of the animals were marked and each cage was labeled with the cage number, study number and animal number per cage.
The human pancreas carcinoma ASPC-1 was used as s.c. xenotransplantation model in immunodeficient female NMRI:nu/nu mice.
They were thawed, expanded in vitro and transplanted as cell suspension subcutaneously (s.c.) in female NMRI:nu/nu mice. The tumor line ASPC-1 is used for testing new anticancer drugs or novel therapeutic strategies. It was therefore selected for this study.
For experimental use 10^7 tumor cells/mouse from the in vitro passage were transplanted s.c. into the flank of each of 10 mice/group at day 0.
At palpable tumor size (30-100 mm^3) treatment started. The application volume was 0.2 ml/20 g mouse body weight. The test compounds, the vehicle controls and the reference compounds were all given intravenously (i.v.).
(§1) Tumor growth inhibition was used as therapeutic parameter. Additionally, body weight change was determined as signs for toxicity (particularly, potential hematological or gastrointestinal side effects).
Tumor diameters were measured twice weekly with a caliper. Tumor volumes were calculated according to V=(length×(width)^2)/2. For calculation of the relative tumor volume (RTV) the tumor volumes at each measurement day were related to the day of first treatment. […]

[2] = Body weight change as sign of toxicity in mice bearing ASPC-1 xenografts (gemcitabine study); details: Table 27, ASPC-1; 60 mg/kg/inj., treatment d 7, 15, 21; day in parentheses
Description: as §1
Individual body weights of mice were determined twice weekly and mean body weight per group was related to the initial value in percent (body weight change, BWC).
Descriptive statistics were performed on the data of body weight and tumor volume. […] Statistical evaluation was performed with the U-test of Mann and Whitney with a significance level of p≦0.05, using the Windows program […] 6.

[3] = system: human breast carcinoma MT-3; experiment: Tumor growth inhibition (RTV, T/C) in the MT-3 xenograft mouse tumor model; details: for Tumor volume cm^3/d31: day 31; for Tumor volume cm^3/d27: day 27
[4] = Body weight change as sign of toxicity in tumor-bearing mice (docetaxel/paclitaxel studies; MT-3, PC3, A549 models)
Description: as §1
Individual body weights of mice were determined twice weekly and mean body weight per group was related to the initial value in percent (body weight change, BWC), see tables in appendix.
Descriptive statistics was performed on the data of body weight and tumor volume. […] Statistical evaluation was performed with the U-test of Mann and Whitney with a significance level of p≦0.05, using the Windows program […] 6.
Tables 18 to 24 summarize the results for the tested Docetaxel conjugates and the reference compound Taxotere®. […] The loss of body weight is known to be an indicator of gastro-intestinal and hepatotoxicity of the tested compound.
The tables show, inter alia, i) the tested compounds, ii) the tumor volume in mice at the day the control group was sacrificed (in cm^3), iii) the lowest value of the relative tumor volume vs. the relative tumor volume of the control group (RTV T/C) together with the day, when this optimum was reached, iv) the maximum body weight loss in mice together with the day, when this minimum was reached. The loss of body weight is known to be an indicator of gastro-intestinal and hepatotoxicity of the tested compound.

[5] = system: human prostate carcinoma PC3; experiment: Tumor growth inhibition (RTV, T/C) in the PC3 xenograft mouse tumor model; details: Table 20; conjugates 1 × 75 mg/kg d6, Docetaxel 5 mg/kg d6-10; i.v.
Description: Each measurement was carried out with a group of 8 mice. The conjugates CDc1, CDc4 and CDc5 were administered once at a dosage of 75 mg/kg body weight on day 6. Taxotere® was administered 5 times at a dosage of 5 mg/kg body weight at days 6 to 10. Median values are given.
(§2) Adult male and female immunodeficient mice NMRI:nu/nu mice (TACONIC Europe, Lille Skensved, Denmark) were used throughout the study.
(§3) The animals were randomly assigned to various experimental groups with 6 to 8 mice each. At treatment initiation the ears of the animals were marked and each cage was labeled with the cage number, study number and animal number per cage.
(§4) The tumor lines A549, PC-3 and MT3 are lines which are commonly used for testing new anticancer drugs or novel therapeutic therapies. A549, PC-3 and MT3 xenografts are growing relatively fast and uniform.
(§5) Tumor cells were thawed and grown under in vitro conditions. […]
as §1
(§6) Tumor diameters were measured twice weekly with a caliper. Tumor volumes were calculated according to V=(length×(width)^2)/2. […] At each measurement day the median and mean tumor volumes per group and also the treated to control (T/C) values in percent were calculated. […]

[6] = system: human lung carcinoma A549; experiment: Tumor growth inhibition (RTV, T/C) in the A549 xenograft mouse tumor model; details: Table 21, conjugates 1 × 75 mg/kg d8, Docetaxel 5 mg/kg d8-12, i.v.
Description: Each measurement was carried out with a group of 8 mice. The conjugates CDc1, CDc4 and CDc5 were administered once at a dosage of 75 mg/kg body weight on day 8. Taxotere® was administered 5 times at a dosage of 5 mg/kg body weight at days 8 to 12. Median values are given.
as §2, §3, §4, §5, §1, §6

[7] = Table 25, MT-3, 12.5 mg/kg/inj. d 7-9, 10 mg/kg/inj. d 10-11
[8] = Table 23, conjugates 1 × 75 mg/kg d7, Docetaxel 5 mg/kg d7-11, i.v.

**Q.** For `Nc1ccn([C@@H]2O[C@H](CO)[C@@H](O)C2(F)F)c(=O)n1` [Gemcitabine, gemcitabine], which “d27 [head truncated; T/C in percent]” value [1] is on record?
**A.** 53.3%

**Q.** What about the “[%] (at day) [head truncated; BWC]” value [2] of the same molecule?
**A.** −2.4 (9) %

**Q.** For `CC(=O)O[C@H]1C(=O)[C@@]2(C)[C@H]([C@H](OC(=O)c3ccccc3)[C@]3(O)C[C@H](OC(=O)[C@H](O)[C@@H](NC(=O)c4ccccc4)c4ccccc4)C(C)=C1C3(C)C)[C@]1(OC(C)=O)CO[C@@H]1C[C@@H]2O` [Paclitaxel, paclitaxel], which “RTV T/C (%) Optimum (at day)” value [3, 7] is on record?
**A.** 21.5%

**Q.** What about the “Tumor volume cm^3/d31” value [3, 7] of the same molecule?
**A.** 0.41 +/− 0.21* cm^3

**Q.** And the “Tumor volume cm^3/d31” value ([3]; Table 26, MT-3, 10 mg/kg/inj., treatment d 10-14)?
**A.** 0.673 +/− 0.226* cm^3

**Q.** What about the “BWC [%] (at day)” value ([4]; Table 25, MT-3 model, 12.5 mg/kg/inj. d 7-9, 10 mg/kg/inj. d 10-11) of the same molecule?
**A.** −15%

**Q.** What about the “Toxic deaths (at day)” value ([4]; Table 25, MT-3 model, 12.5 mg/kg/inj. d 7-9, 10 mg/kg/inj. d 10-11, number of mice) of the same molecule?
**A.** 1

**Q.** And the “BWC [%] (at day)” value ([4]; Table 26, MT-3 model, 10 mg/kg/inj., treatment d 10-14)?
**A.** −18%

**Q.** And the “Toxic deaths (at day)” value ([4]; Table 26, MT-3 model, 10 mg/kg/inj., treatment d 10-14, number of mice)?
**A.** 0

**Q.** Which “Tumor volume cm^3/d31” value ([3]; Table 18, conjugates 1 × 100 mg/kg d7, Docetaxel 10 mg/kg d7, 9, 11, i.v.) does the source give for `CC(=O)O[C@@]12CO[C@@H]1C[C@H](O)[C@@]1(C)C(=O)[C@H](O)C3=C(C)[C@@H](OC(=O)[C@H](O)[C@@H](NC(=O)OC(C)(C)C)c4ccccc4)C[C@@](O)([C@@H](OC(=O)c4ccccc4)[C@H]21)C3(C)C` [Docetaxel, docetaxel] here?
**A.** 0.18 +/− 0.10 cm^3

**Q.** And the “RTV T/C (%) Optimum (at day)” value ([3]; Table 18, lowest RTV vs control, conjugates 1 × 100 mg/kg d7, Docetaxel 10 mg/kg d7, 9, 11, i.v.)?
**A.** 10.7%

**Q.** What about the “RTV T/C (%) Optimum (at day)” value ([3]; Table 19, conjugates 1 × 75 mg/kg d11, Docetaxel 5 mg/kg d11-15, i.v.) of the same molecule?
**A.** 54.0%

**Q.** What about the “Tumor volume cm^3/d26” value ([3]; Table 19, day 26, conjugates 1 × 75 mg/kg d11, Docetaxel 5 mg/kg d11-15, i.v.) of the same molecule?
**A.** 0.815 +/− 0.383* cm^3

**Q.** And the “RTV T/C (%) Optimum (at day)” value ([3]; Table 22, conjugates 1 × 75 mg/kg d11, Docetaxel 5 mg/kg d11-15, i.v.)?
**A.** 31.8%

**Q.** What about the “Tumor volume cm3/d25” value ([3]; Table 22, day 25, conjugates 1 × 75 mg/kg d11, Docetaxel 5 mg/kg d11-15, i.v.) of the same molecule?
**A.** 0.517 +/− 0.202* cm3

**Q.** What about the “RTV T/C (%) Optimum (at day)” value [3, 8] of the same molecule?
**A.** 43.0%

**Q.** What about the “Tumor volume cm^3/d27” value [3, 8] of the same molecule?
**A.** 0.873 +/− 0.390* cm^3

**Q.** And the “RTV T/C (%) Optimum (at day)” value ([3]; Table 24, MT-3, 5 mg/kg/inj., treatment d 8-12, day of optimum in parentheses below)?
**A.** 23.1%

**Q.** What about the “Tumor volume cm^3/d27” value ([3]; Table 24, MT-3, 5 mg/kg/inj., treatment d 8-12) of the same molecule?
**A.** 0.542 +/− 0.353* cm^3

**Q.** And the “RTV T/C (%) Optimum (at day)” value [5]?
**A.** 2.6%

**Q.** What about the “RTV T/C (%) Optimum (at day)” value [6] of the same molecule?
**A.** 32.3%

**Q.** And the “Tumor volume cm^3/d42” value ([6]; day 42)?
**A.** 0.334 +/− 0.207* cm^3

**Q.** And the “Toxic deaths (at day)” value ([4]; Table 18, MT-3 model, conjugates 1 × 100 mg/kg d7, Docetaxel 10 mg/kg d7, 9, 11, i.v., 8 mice per group)?
**A.** 4

**Q.** What about the “Toxic death (at day)” value ([4]; Table 23, MT-3 model, conjugates 1 × 75 mg/kg d7, Docetaxel 5 mg/kg d7-11, i.v.) of the same molecule?
**A.** 0

**Q.** And the “BWC [%] (at day)” value ([4]; mouse, in vivo, 5 mg/kg)?
**A.** −11%
